Assay results published in patent US20160045498A1, “METHODS OF TREATING DISEASES CHARACTERIZED BY EXCESSIVE WNT SIGNALLING” (THE WALTER AND ELIZA HALL INSTITUTE OF MEDICAL RESEARCH, priority 2013, published 2016).

Assays:
[1] = test system: SW480^APC cells; test: Soft agar colony growth assay, SW480APC; assay type: cell-based, human; conditions: 10 days, AZD1480 1 μM, S3I-201 50 μM, IL11 10 ng/ml
Description: e Photograph of SW480 and SW480^APC CRC cells grown for 10 days under colony forming conditions in soft agar in the presence of vehicle or 1 μM of Jak2 inhibitor AZD1480 (Jak2i) (Scale bar=200 μm)
f Colony forming capacity of an isogenic pair of SW480 cells scored 10 days after the indicated treatment. (*p≦0.04; triplicate cultures and repeated).
(§1) SW480 and SW480^APC cells (Faux et al., 2004) were seeded in 2 ml of RPMI media supplemented with 10% FBS and 1% penicillin/streptomycin in 35 mm culture dishes at a density of 2×10^5 cells per dish. Three days later cultures were exposed to AZD1480 (1 μM) for 15 min. Co-immunofluorescence was then performed with antibodies to rabbit phospho-Stat3 (Tyr705, Santa Cruz #9134s, 1:200 dilution) and mouse β-catenin (Transduction Laboratories, 1:400). Colony formation assays of SW480 cells in soft agar were performed as described (Faux et al., 2004) in the presence of either AZD1480, (1 μM), the Stat3 inhibitor S3I-201 (Biovision, 50 μM) or recombinant human IL11 (Genetics Institute, 10 ng/ml). All experiments were performed in triplicates and repeated at least once. Vehicle was methylcellulose.

[2] = test system: SW480 cells; test: SW480 tumor xenografts; assay type: in vivo, human
Description: a Tumour xenograft burden in BALB/c nude mice injected s.c. with SW480 cells in matrigel and receiving daily gavage with AZD1480 (30 mg/kg) or vehicle starting on the 5th day after cell inoculation. (*p≦0.018; two sided t-test; n=12 mice), d Immunohistochemical analysis of p21 expression in xenograft tumours following 35 days of treatment with Jak2 inhibitor AZD1480 or vehicle. Scale bar=100 μm. e RT-qPCR expression analysis for SOCS3, p21 and CYCLIN D1 in SW480 xenografts from FIG. 5a and b (p=0.04; n=3 mice). One flank of female BALB/c nude mice was injected subcutaneously with 2×10^6 SW480 cells resuspended in Matrigel (BD Biosciences)/PBS (1:1) at a final volume of 200 μl. Once tumor became palpable (>100 mm^3) approximately 5 days later, mice received continuous daily gavage of the Jak2 inhibitor AZD1480 ([…] et al., 2009) (30 mg/kg, a gift from Astra-Zeneca). Gene expression analysis by RT-qPCR was performed using the SybrGreen method (ABI) as described previously ([…] et al., 2008). Fold change was calculated using the 2^-ΔΔCT method (Livak et al., 2001). Protein expression was analysed by Western blot by transferring SDS-PAGE separated protein lysates to nitrocellulose membrane and blocked either in 5% non-fat milk powder and probed with antibodies detecting p16 (Santa Cruz; #sc-467), Bmi1 (Millipore #[…]), Actin (Sigma; #A2066) or Gapdh (Santa Cruz; #sc-69778). All antibodies were diluted 1:1000 in BSA or non-fat milk powder and incubations were performed overnight. Tissues were fixed and immunohistochemistry performed as described previously (Sansom et al., 2007). Primary antibodies used were rabbit phospho-Stat3 to Tyr705 (Santa Cruz #9134s, 1:150), mouse β-catenin (Transduction Laboratories, 1:300), rabbit PCNA (Santa Cruz #7907, 1:100), rabbit […] (Santa Cruz N-262. Lot #C1309, 1:200), and goat p21 (Santa Cruz #Sc-397-G; 1:100).

[3] = test system: small intestine; test: Irradiation induced intestinal regeneration; assay type: in vivo; conditions: gp130^F/F mice, AZD1480 30 mg/kg, 72 h after γ-irradiation (14 Gy)
Description: a Immunohistochemical analysis for the proliferation marker PCNA on sections of small intestines of wild-type (Wt), gp130^F/F (F/F), Stat3^+/−, gp130^F/F;Stat3^+/− (F/F Stat3^+/−), gp130^ΔStat/ΔStat (Δ/Δ) and gp130^ΔStat/+ (Δ/+) as well as of Wt and F/F mice treated with Jak2 kinase inhibitor AZD1480 (Jak2i; 30 mg/kg) 72 h after exposure to γ-irradiation. Scale bar=100 μm.
b Enumeration of intact crypts in cross sections from the proximal small intestine stained for PCNA obtained 72 h after exposure of mice of the indicated genotype to γ-irradiation. (*p≦0.04; n=3 mice).
Mice were irradiated with a single dose of 14 Gy of γ-irradiation (0.414 Gy/min) to determine regenerative potential of the small intestine as described (Ashton et al., 2010).

[4] = test system: SW480 cells; test: p-STAT3 / β-CATENIN immunofluorescence and SOCS3 RT-qPCR in SW480 cells; assay type: cell-based, human
Description: (§2) d Immunofluorescence staining for β-CATENIN or tyrosine-705 phosphorylated STAT3 in an isogenic pair of SW480 cells grown in the presence of 1 μM AZD1480 (Jak2i) or vehicle. SW480 cells are APC mutant and lack expression of functional APC protein, while SW480^APC cells have been reconstituted to express wild-type APC. Scale bar=20 μm.
(§3) g RT-qPCR expression analysis for the STAT3 target gene SOCS3 in SW480 and SW480^APC CRC cells grown for 10 days under colony forming conditions in soft agar in the presence of the indicated treatment. Expression in the vehicle-treated cultures was arbitrarily set as 1. (*p≦0.04; triplicate cultures in each of two repeats).
as §1
(§4) Gene expression analysis by RT-qPCR was performed using the SybrGreen method (ABI) as described previously (Phesse et al., 2008). Fold change was calculated using the 2^−ΔΔCT method (Livak et al., 2001). Protein expression was analysed by Western blot by transferring SDS-PAGE separated protein lysates to nitrocellulose membrane and blocked either in 5% non-fat milk powder and probed with antibodies detecting p16 (Santa Cruz; #sc-467), Bmi1 (Millipore #[…]), Actin (Sigma; #A2066) or Gapdh (Santa Cruz; #sc-69778). All antibodies were diluted 1:1000 in BSA or non-fat milk powder and incubations were performed overnight.

[5] = test system: SW480^APC cells; test: p-STAT3 immunofluorescence and SOCS3 RT-qPCR in SW480APC cells; assay type: cell-based, human
Description: as §2, §3, §1, §4

## Cc1cc(Nc2nc(N[C@@H](C)c3ncc(F)cn3)ncc2Cl)n[nH]1 [AZD1480]
[1]
  colony formation in soft agar: did not affect colony formation
[2]; BALB/c nude mice, s.c., daily gavage 30 mg/kg from day 5
  growth of established SW480 tumours: reduced the growth
[2]; RNA from SW480 xenografts
  CYCLIND1 expression (RT-qPCR): decrease
  SOCS3 expression (RT-qPCR): decrease
  p21 expression (RT-qPCR): increased
[2]; SW480 xenografts, 35 days of treatment, vs vehicle
  p21 expression in tumours (immunohistochemistry): increased
[3]
  intestinal regeneration: impaired
[4]; APC-deficient SW480, 1 μM AZD1480
  accumulation of nuclear β-CATENIN: did not diminish
[4]; SW480, 1 μM AZD1480
  accumulation of activated (phosphorylated) p-STAT3: reduced accumulation
[4]; SW480, RT-qPCR, AZD1480 1 μM, IL11 10 ng/ml
  SOCS3 expression: reduced SOCS3 expression
[5]; 1 μM AZD1480
  accumulation of activated (phosphorylated) p-STAT3: reduced accumulation
[5]; RT-qPCR, AZD1480 1 μM, IL11 10 ng/ml
  SOCS3 expression: reduced SOCS3 expression
